Results reported in US10526291B2, “Potent dual BRD4-kinase inhibitors as cancer therapeutics” (H. Lee Moffitt Cancer Center and Research Institute, Inc., priority 2014, dated 2020).
Several values for one entry are separate records, joined by “and”; a condition that tells them apart may be missing. Identical values can stand only once.

How the values were obtained:
UKE-1 = UKE-1 cell IC50; type: cell-based; conditions: UKE1
MV4-11 AML cells = assay: MV-4-11 cell IC50 (antiproliferative activity); type: cell-based; conditions: Homo sapiens
Experimental: Cellular activity of promising compounds is assessed using MM.1S and MV4-11 AML cells using c-Myc levels as biomarker (6-12 hr treatment) and antiproliferative activity (48-72 hr treatment) as described (Ciceri et al., Dual kinase-bromodomain inhibitors for rationally designed polypharmacology. Nat Chem Biol 2014).

BRD4 = BRD4 (Homo sapiens, UniProt O60885); assay: Differential Scanning Fluorimetry (DSF), stability of BRD4 upon ligand binding; conditions: for DSF ΔTm (° C.) / ΔTm at 4 µM: 100 μM protein, 4 μM compound and 2% DMSO; for IC50: estimated
Experimental: DSF=Differential Scanning Fluorimetry; provides a measure of the increased stability of BRD4 upon ligand binding The DSF experiment was run at 100 μM protein, 4 μM compound and 2% DMSO.

MM.1S cells = assay: MM.1S cell survival, MTT assay; type: cell-based; conditions: Homo sapiens, MM1.S, 72 h, 72 hours compound exposure
HEK293 = HEK293 cell IC50; type: cell-based; conditions: Homo sapiens
SAOS-2 = SAOS-2 cell IC50; type: cell-based; conditions: Homo sapiens
c-Myc in MM.1S cells = conditions: literature; cited from earlier work
JAK2 = target: T1, JAK2 (Homo sapiens, UniProt O60674); assay: JAK2 IC50 (RB, commercial kinase panel); type: biochemical
T1 construct: purchased
T1 sequence (O60674 whole entry): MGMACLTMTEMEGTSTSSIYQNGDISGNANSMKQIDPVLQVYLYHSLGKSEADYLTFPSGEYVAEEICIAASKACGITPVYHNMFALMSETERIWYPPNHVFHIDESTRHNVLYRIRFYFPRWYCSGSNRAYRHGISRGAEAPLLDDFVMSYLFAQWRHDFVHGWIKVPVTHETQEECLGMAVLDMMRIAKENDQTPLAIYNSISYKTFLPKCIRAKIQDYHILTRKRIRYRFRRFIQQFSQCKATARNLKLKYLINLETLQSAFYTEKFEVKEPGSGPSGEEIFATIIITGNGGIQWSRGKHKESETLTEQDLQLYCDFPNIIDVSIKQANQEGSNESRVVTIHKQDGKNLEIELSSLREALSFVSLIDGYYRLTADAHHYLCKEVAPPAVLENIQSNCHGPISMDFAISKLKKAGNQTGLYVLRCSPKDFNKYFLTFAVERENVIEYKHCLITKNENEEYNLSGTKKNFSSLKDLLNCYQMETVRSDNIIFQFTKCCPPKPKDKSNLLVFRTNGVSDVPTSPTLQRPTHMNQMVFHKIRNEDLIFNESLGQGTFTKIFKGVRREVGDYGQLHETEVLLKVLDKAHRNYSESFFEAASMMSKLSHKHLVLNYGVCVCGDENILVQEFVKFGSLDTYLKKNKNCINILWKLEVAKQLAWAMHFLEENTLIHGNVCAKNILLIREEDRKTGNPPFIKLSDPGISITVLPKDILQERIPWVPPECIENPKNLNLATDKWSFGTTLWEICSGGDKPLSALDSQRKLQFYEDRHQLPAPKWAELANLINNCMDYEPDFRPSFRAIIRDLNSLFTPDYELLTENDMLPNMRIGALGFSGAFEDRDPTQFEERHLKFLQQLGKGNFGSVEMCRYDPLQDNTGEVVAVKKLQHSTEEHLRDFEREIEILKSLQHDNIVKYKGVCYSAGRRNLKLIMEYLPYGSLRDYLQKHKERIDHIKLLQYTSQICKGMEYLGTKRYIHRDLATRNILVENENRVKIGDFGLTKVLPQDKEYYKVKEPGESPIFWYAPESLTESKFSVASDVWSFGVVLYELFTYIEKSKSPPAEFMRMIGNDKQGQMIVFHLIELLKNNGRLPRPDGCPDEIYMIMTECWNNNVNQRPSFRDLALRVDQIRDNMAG

| ΔTm at 4 µM (BRD4) [°C] | IC50 (BRD4) | Structure (SMILES) | IC50 (HEK293) [nM] | also measured |
| --- | --- | --- | --- | --- |
| 4.8 ± 0.058 | 540 nM | COc1cc(Nc2nc(Nc3ccc(N4CCN(C)CC4)cc3)ncc2Cl)ccc1Cl | 1400 | IC50 (MM.1S cells): 450 nM |
| 6.4 ± 0.15 | 160 nM | CN1CCN(c2ccc(Nc3ncc(Cl)c(Nc4cccc(S(=O)(=O)NC5CC5)c4)n3)cc2)CC1 | 1800 | IC50 (MM.1S cells): 880 nM |
| 6.9 ± 0.038 | 110 nM | CN1CCN(c2ccc(Nc3nc4c(c(Nc5cccc(NS(=O)(=O)C(C)(C)C)c5)n3)CCCC4)cc2)CC1 |  | IC50 (SAOS-2): 2500 nM; IC50 (MM.1S cells): 1700 nM |
| 6.83 ± 0.129 |  | Cc1cnc(Nc2ccc(N3CCN(C)CC3)cc2)nc1Nc1cccc(S(=O)(=O)NC(C)(C)C)c1 [drawing 27] |  | DSF ΔTm (° C.) (BRD4): 7.55 ± 0.154 °C; IC50 (SAOS-2): 425 nM |
| 6.5 ± 0.18 | 150 nM | Cc1cnc(Nc2ccc(N3CCN(C)CC3)cc2)nc1Nc1cccc(S(=O)(=O)NC(C)(C)CO)c1 | 3600 |  |
| 5.3 ± 0.064 | 370 nM | Cc1nc(Nc2ccc(N3CCN(C)CC3)cc2)nc(Nc2cccc(S(=O)(=O)NC(C)(C)C)c2)c1C | 120000 |  |
| 7.3 ± 0.099 | 79 nM | Cc1cnc(Nc2ccc(N3CCN(C)CC3)cc2)nc1Nc1cccc(S(=O)(=O)NC2CC2)c1 | 1200 | IC50 (MM.1S cells): 1200 nM |
| 6.7 ± 0.11 | 130 nM | Cc1cnc(Nc2ccc(N3CCN(C)CC3)cc2)nc1Nc1cccc(NS(=O)(=O)C2CC2)c1 | 1000 | IC50 (MM.1S cells): 600 nM |
| 6.1 ± 0.15 | 200 nM | CN1CCN(c2ccc(Nc3ncc(Cl)c(Nc4cccc(S(=O)(=O)NC(C)(C)CO)c4)n3)cc2)CC1 | 1500 |  |
| 6.9 ± 0.15 | 110 nM | CN1CCN(c2ccc(Nc3ncc(Cl)c(Nc4cccc(NS(=O)(=O)C5CC5)c4)n3)cc2)CC1 | 3600 |  |
| 6.4 ± 0.0066 | 160 nM | CCOc1cc(Nc2nc(Nc3ccc(N4CCN(C)CC4)cc3)ncc2C)ccc1Cl |  |  |
| 4.1 ± 0.12 | 900 nM | Cc1cnc(Nc2ccc(N3CCN(C)CC3)cc2)nc1Nc1cccc(NC(=O)C(C)C)c1 |  |  |
| 2 ± 0.05 | 4700 nM | Cc1cnc(Nc2ccc(N3CCN(C)CC3)cc2)nc1Nc1ccc(Cl)c([N+](=O)[O-])c1 |  |  |
| 5 ± 0.13 | 480 nM | CC(C)NS(=O)(=O)c1cccc(Nc2nc(Nc3ccc(N4CCN(C)CC4)cc3)nc3ccccc23)c1 |  |  |
| -0.0056 ± 0.24 | > 20000 nM | CCOC(=O)c1cnc(Nc2ccc(N3CCN(C)CC3)cc2)nc1Nc1cccc(S(=O)(=O)NC(C)(C)C)c1 |  |  |
| 1.9 ± 0.17 | 5030 nM | Cc1nc(Nc2ccc(N3CCOCC3)cc2)nc(Nc2cccc(S(=O)(=O)NC(C)(C)C)c2)c1C |  |  |
| 2.9 ± 0.031 | 2330 nM | CC(C)(C)NS(=O)(=O)c1cccc(Nc2nc(Nc3ccc(N4CCNCC4)cc3)ncc2C(F)(F)F)c1 |  |  |
| 0.79 ± 0.079 | 12000 nM | Cc1cnc(Nc2ccc(N3CCN(C)CC3)cc2)nc1Nc1ccc2c(c1)OCO2 |  |  |
| -0.2 ± 0.2 | 25000 nM | CN1CCN(c2ccc(Nc3ncc(C(=O)O)c(Nc4cccc(S(=O)(=O)NC(C)(C)C)c4)n3)cc2)CC1 |  |  |
| 6 ± 0.1 | 210 nM | Cc1cnc(Nc2ccc(N3CCN(C)CC3)cc2)nc1Nc1cccc(S(=O)(=O)NC(C)C)c1 |  |  |
| 5.5 ± 0.17 | 320 nM | Cc1nc(Nc2ccc(N3CCN(C)CC3)cc2)nc(Nc2cccc(S(=O)(=O)NC(C)(C)CO)c2)c1C | 4300 |  |
| 6.7 ± 0.157 | 321 nM | CCCS(=O)(=O)Nc1cccc(Nc2nc(Nc3ccc(N4CCN(C)CC4)cc3)ncc2C)c1 |  |  |
| 2.6 ± 0.081 | 2900 nM | CN1CCN(c2ccc(Nc3nc(Nc4cccc(S(=O)(=O)NC(C)(C)C)c4)c4ccccc4n3)cc2)CC1 |  |  |
| 0.0094 ± 0.11 | 22000 nM | COc1cc(Nc2nc(Nc3ccc(N4CCN(C)CC4)cc3)ncc2C(=O)O)ccc1Cl |  |  |
| -0.29 | 27100 nM | CCc1cnc(Nc2ccc(N3CCOCC3)cc2)nc1Nc1cccc(S(=O)(=O)NC(C)C)c1 |  |  |

The remaining lines, values behind:

| Structure (SMILES) | ΔTm at 4 µM (BRD4) [°C] | IC50 (BRD4) | IC50 (HEK293) [nM] | also measured |
| --- | --- | --- | --- | --- |
| Cc1cnc(Nc2ccc(C(=O)NC3CCN(C)CC3)cc2)nc1Nc1ccc(Cl)c(NS(=O)(=O)C(C)(C)C)c1 | 11 ± 0.12 | 6.1 nM and 4.6 nM |  | IC50 (UKE-1): 1600 nM; IC50 (MV4-11 AML cells): 71 nM; DSF ΔTm (° C.) (BRD4): 11 ± 0.12 11 ± 0.12 °C |
| COc1cc(Nc2nc(Nc3ccc(N4CCN(C)CC4)cc3)nc3ccccc23)ccc1Cl | 4.9 ± 0.13 | 500 nM | 1700 |  |
| Cc1cnc(Nc2ccc(N3CCN(C)CC3)cc2)nc1Nc1cccc(S(=O)(=O)NC(C)(C)C)c1 [TG101209] |  |  |  | downregulation of c-Myc (c-Myc in MM.1S cells): strong downregulation of c-Myc |
| CC[C@@H]1C(=O)N(C)c2cnc(Nc3ccc(C(=O)NC4CCN(C)CC4)cc3OC)nc2N1C1CCCC1 [BI2536] |  |  |  | downregulation of c-Myc (c-Myc in MM.1S cells): strong downregulation of c-Myc |
| COc1cc(Nc2nc(Nc3ccc(N4CCN(C)CC4)cc3)ncc2C)cc(OC)c1Cl | 7.6 ± 0.15 | 63 nM |  | IC50 (MM.1S cells): 1100 nM |
| Cc1cnc(Nc2ccc(OCCN3CCCC3)cc2)nc1Nc1cccc(S(=O)(=O)NC(C)(C)C)c1 [TG101348] |  |  |  | downregulation of c-Myc (c-Myc in MM.1S cells): strong downregulation of c-Myc |
| Cc1cnc(Nc2ccc(C3CCN(C)CC3)cc2)nc1Nc1ccc(Cl)c(NS(=O)(=O)C(C)(C)C)c1 | 10 ± 0.11 | 7.4 nM and 9.9 nM |  | IC50 (UKE-1): 470 nM; IC50 (MV4-11 AML cells): 98 nM; DSF ΔTm (° C.) (BRD4): 10 ± 0.11 10 ± 0.11 °C |
| CN1CCC(NC(=O)c2ccc(Nc3ncc(Cl)c(Nc4ccc(Cl)c(NS(=O)(=O)C(C)(C)C)c4)n3)cc2F)CC1 | 12 ± 0.5 | 10.5 nM |  | IC50 (MM.1S cells): 90 nM |
| CN1CCC(NC(=O)c2ccc(Nc3ncc(F)c(Nc4ccc(Cl)c(NS(=O)(=O)C(C)(C)C)c4)n3)cc2F)CC1 | 9.91 ± 0.039 | 40.5 nM |  | IC50 (MM.1S cells): 120 nM |
| COc1cc(Nc2nc(Nc3ccc(N4CCN(C)CC4)cc3)nc(C)c2C)ccc1Cl | 4.1 ± 0.14 | 930 nM | 840 | IC50 (JAK2): 14000 nM |
| COc1cc(Nc2nc(Nc3ccc(N4CCN(C)CC4)cc3)ncc2C)cc(OC)c1OC | 6.9 ± 0.1 | 110 nM | 970 |  |
| Cc1ccc(Nc2nc(Nc3ccc(C(=O)NC4CCN(C)CC4)c(F)c3)ncc2C)cc1S(=O)(=O)NC1CCC1 | 7.8 ± 0.15 | 54 nM |  |  |
| COc1cc(Nc2nc(Nc3ccc(N4CCN(C)CC4)cc3)ncc2Cl)cc(OC)c1OC | 5.2 ± 0.02 | 400 nM | 2000 |  |
| COc1cc(Nc2nc(Nc3ccc(N4CCN(C)CC4)cc3)nc(C)c2C)cc(OC)c1OC | 5.9 ± 0.14 | 230 nM | 1400 | IC50 (MM.1S cells): 5600 nM |
| COc1cc(C(=O)NC2CCN(C)CC2)ccc1Nc1ncc(C)c(Nc2cc(OC)c(Cl)c(OC)c2)n1 | 3 ± 0.11 | 2200 nM |  |  |
| CN1CCN(c2ccc(Nc3ncc(F)c(Nc4ccc(C(=O)Nc5ccccc5)cc4)n3)cc2)CC1 | 0.35 ± 0.068 | 17000 nM |  |  |
| Cc1cnc(Nc2ccc(C(=O)NC3CCN(C)CC3)c(F)c2)nc1Nc1ccc2c(c1)N(S(=O)(=O)C(C)(C)C)CC2 | 12.3 ± 0.116 | 8.6 nM |  |  |
| Cc1ccc(Nc2nc(Nc3ccc(C4CCN(C)CC4)cc3)ncc2C)cc1S(=O)(=O)NC1CCC1 | 7.7 ± 0.17 | 58 nM |  |  |
| Cc1cnc(Nc2ccc(N3CCN(C)CC3)cc2)nc1Nc1cc(NS(=O)(=O)C2CC2)cc(NS(=O)(=O)C2CC2)c1 | 5.3 ± 0.041 | 370 nM |  |  |
| Cc1cnc(Nc2ccc(C(=O)NC3CCN(C)CC3)c(F)c2)nc1Nc1ccc2c(c1)N(S(=O)(=O)C(C)(C)C)CCC2 | 11.4 ± 0.103 | 15.5 nM |  |  |
| Cc1ccc(Nc2nc(Nc3ccc(N4CCN(C)CC4)c(F)c3)ncc2C)cc1S(=O)(=O)NC1CCC1 | 6.8 ± 0.01 | 120 nM |  |  |
